Reference: article PMC3303165 (Dalton Transactions (Cambridge, England : 2003), 2012)

Experiments:
[1] = test system: Plasmodium falciparum Dd2 (chloroquine resistant strain); type: cell-based; settings: DD2, read-out: Dd2: IC50
[2] = test system: Plasmodium falciparum D10 (chloroquine sensitive strain); type: cell-based; settings: D10, read-out: D10: IC50
[3] = cited from earlier work
[4] = test system: heme aggregation; settings: acetate buffer (pH=4.9)/n-octanol interface; cited from earlier work

Structure (SMILES)	IC50 [1] [nM]	IC50 [2] [nM]	D(pH=4.9) water/n-octanol distribution coefficient ([3]; pH 4.9)	D(pH=6.6) water/n-octanol distribution coefficient ([3]; pH 6.6)	HAIR50 (drug to hemin ratio required to inhibit 50% of heme aggregation) [4]
Clc1ccc2c(NCCN(Cc3ccccn3)Cc3ccccn3)ccnc2c1 [L^4, N-(2-(bis((pyridin-2-yl)methyl)amino)ethyl)-7-chloroquinolin-4-amine]	1300 ± 100	1300 ± 100	–	–	–
Oc1ccccc1CN=CCNc1ccnc2cc(Cl)ccc12 [L^3, N-(2-((2-hydroxyphenyl)methylimino)ethyl)-7-chloroquinolin-4-amine]	> 30000	550 ± 300	–	–	–
CCN(CC)CCCC(C)Nc1ccnc2cc(Cl)ccc12 (stereo not shown) [CQ, chloroquine]	143 ± 14	25 ± 9	0.15 ± 0.01	6.61 ± 0.64	2.92
Clc1ccc2c(NCCNCc3ccccn3)ccnc2c1 [L^1, N-(2-((pyridin-2-yl)methylamino)ethyl)-7-chloroquinolin-4-amine]	220 ± 30	30 ± 2	–	–	–
Cn1ccnc1CNCCNc1ccnc2cc(Cl)ccc12 [L^2, N-(2-((1-methyl-1H-imidazol-2-yl)methylamino)ethyl)-7-chloroquinolin-4-amine]	250 ± 60	190 ± 30	–	–	–
